Columns and labels:
cells = experiment: Cytotoxicity test: MTT assay of cell survival rate; assay type: cell-based; settings: 0, 20, 100 and 200 μg/ml; treated 2 hours; FIG. 2
Method: The cytotoxicity test was performed with Methylthiazol tetrazolium bromide (MTT) assay to test the cell survival rate. The principle was that MTT is a water-soluble yellow dye, after reacting with cells it was reduced by the NADPH in the cells to become an insoluble dark blue crystal, then the blue crystal was dissolved with dimethyl sulfoxide (DMSO), the absorbance value was analyzed, the stronger the cell activity, the darker the blue, and when the cell was dead, it became yellow.
In the present invention, from low to high concentration (0, 20, 100 and 200 μg/ml) of P-113 peptide and the MI preservative were used to treat the cells for 2 hours, then the MTT solution was added for reaction, a spectrophotometer at the wavelength of 595 nm was used to analyze the cell survival rate, and the harmful toxic effect of the cosmetic raw material on the cells was determined.

[1] = Moisture absorption rate in Conway's dish at defined relative humidity; assay type: physicochemical; settings: relative humidity 32%; 30° C., 24 hours; relative to hyaluronic acid at RH 32% set as 100%; FIG. 3
Method: The moisture absorption of the P-113 peptide was determined by dissolving magnesium chloride (MgCl2) and potassium chloride (KCl), two types of salts, in water, preparing supersaturated solutions based on the respective solubility of these two types of salts, placing the solutions in sealed bottles to create a relative humidity of 32% and 84%, respectively, then taking P-113 peptide and hyaluronic acid for comparison test. The hyaluronic molecule of hyaluronic acid could carry up to 500 folds of water. The hyaluronic acid is currently recognized as the best moisturizing ingredient, and widely used in cosmetics and skincare products.
0.1 g of P-113 peptide and hyaluronic acid powder were weighed and placed in the internal chamber of a Conway's dish, saturated solutions were added in the external chamber, oil was applied on the rim of the Conway's dish lid to seal it completely, placed in an oven at 30° C. for 24 hours, then samples were removed and weighed.
Moisture absorption rate under different humidity was calculated by the following formula: Moisture absorption rate (%)=[(Wt−W0)/W0]×100%
(§1) wherein W0: the weight (g) of the initial sample, and Wt: the weight (g) of the sample removed after 24 hours.

[2] = Moisture retention rate in Conway's dish at defined relative humidity; assay type: physicochemical; settings: relative humidity 32%; 30° C., 24 hours; reference set as 100%; FIG. 4
Method: In addition, the moisture retention and water absorption of P-113 peptide were determined by dissolving magnesium chloride (MgCl2) and potassium chloride (KCl), two types of salts, in water, preparing supersaturated solutions based on the solubility of these two types of salt respectively, separately placing in sealed bottles to create a relative humidity of 32% and 84% respectively, then using P-113 peptide and hyaluronic acid for comparison test.
0.1 g of P-113 peptide and hyaluronic acid powder were weighed and placed in the internal chamber of a Conway's dish, then 0.1 ml of deionized water was added, saturated solutions were then added in the external chamber, sealed with the Conway's dish lid and placed in the oven at 30° C. for 24 hours, then samples were removed and weighed.
Moisture retention at different humidity levels was calculated according to the following formula: Moisture retention rate (%)=[1−((Wt−W0)/W0)]×100%
as §1

moisture absorption rate [1] [%] | moisture retention rate [2] [%] | Molecule | cell survival rate (MTT) (cells)
– | – | Cn1sccc1=O [MI, Methylisothiazolinone] | decreased the cell survival rate
100 | 100 | hyaluronic acid | –
